Reference: patent US20190153024A1, “NOVEL SALTS AND POLYMORPHS OF SCY-078” (priority 2015, published 2019)

Key:
[1] = Chemical and physical stability of SCY-078 salts on storage (25° C./60% RH, 40° C./75% RH, 60° C.); assay type: physicochemical
Description: For all compounds tested other than the trifluoroacetate salts (Type A and B) and the HCl Type I and II salts, the conditions and parameters used for measuring solubility are shown in Table 2A and for measuring stability are showing in Table 3A. The conditions and parameters used for the solubility of the trifluoroacetate salts (Type A and B) and the HCl Type I and II salts are shown in Table 2B and for stability are shown in Table 3B.

[2] = pH value of saturated SCY-078 salt solutions in water; assay type: physicochemical; conditions: saturated salt solution in H2O, room temperature; for pH 1 hr: equilibrated 1 hour; for pH 24 hrs: equilibrated 24 hours
Procedure: To test the pH, a solution of each compound was equilibrated at room temperature using a rolling incubator (25 rpm) for 1 hour and 24 hours before measurement.

[3] = Dynamic Vapor Sorption (DVS) water uptake; assay type: physicochemical; conditions: for solid form by XRPD after DVS: after DVS experiment
Procedure: Dynamic Vapor Sorption (DVS)—The term “DVS” means the procedure described in below. The relative humidity at 25° C. was calibrated against deliquescence point of LiCl, Mg(NO3)2 and KCl.
The DVS of SCY-078 salts were tested according to the above method, using a 10-20 mg sample size. The DVS was measured using a Surface Measurement Systems (SMS) DVS Intrinsic.

[4] = Physical and chemical stability of trifluoroacetate Types A and B and HCl Type I for 1, 2, 4 and 8 weeks; assay type: physicochemical
[5] = Form change of trifluoroacetate on storage at varying relative humidity; assay type: physicochemical; conditions: storage for 24 hours
Procedure: To investigate transition relationship of trifluoroacetate Type A and Type B, both samples were stored in chambers with varying relative humidity to monitor any form change. […] Varying temperature (VT)-XRPD of trifluoroacetate Type A was performed.

[6] = Kinetic solubility of trifluoroacetate Types A and B and HCl Type I (alternative procedure: SGF, FaSSIF and FeSSIF alternative media, acetate pH 5.5, phosphate pH 6.0 alternative media); conditions: for Form change: residual solid by XRPD
[7] = Solid form stability on storage under ambient conditions; assay type: physicochemical; conditions: 2 days
Procedure: SCY-078 Citrate Type E: SCY-078 citrate Type E was obtained by drying a metastable solvate SCY-078 citrate Type R from MeOH/IPAc.
SCY-078 Citrate Type M: SCY-078 citrate Type M was obtained by storing SCY-078 citrate Type E in ambient conditions for 2 days. […] (onset temperatures) (FIG. 58). […] (FIG. 58).
SCY-078 Trifluoroacetate Type A is highly crystalline as shown in the XRPD (FIG. 85). […] The molar ratio of trifluoroacetate Type A (acid: freebase) was determined to be 1:1 via HPLC-IC confirmation.

[8] = 25° C./60% RH, open dish, 1 week
[9] = 40° C./75% RH, open dish, 1 week
[10] = 25° C./60% RH (uncapped), 1 week
[11] = 25° C./60% RH (uncapped), 2 weeks
[12] = 25° C./60% RH (uncapped), 4 weeks
[13] = 25° C./60% RH (uncapped), 8 weeks
[14] = 40° C./75% RH (uncapped), 1 week
[15] = 40° C./75% RH (uncapped), 2 weeks
[16] = 40° C./75% RH (uncapped), 4 weeks
[17] = 40° C./75% RH (uncapped), 8 weeks

CC(C)[C@@H](C)[C@@]1(C)CC[C@]2(C)[C@H]3CC[C@@H]4[C@@]5(COC[C@]4(C)[C@@H](OC[C@](C)(N)C(C)(C)C)[C@H](n4ncnc4-c4ccncc4)C5)C3=CC[C@@]2(C)[C@@H]1C(=O)O.O=C(O)CC(O)(CC(=O)O)C(=O)O [SCY-078 citrate Type A]
time stable when stored ([1]; 25° C. and 60% relative humidity): at least 1 week
Impurity % by HPLC [1, 8]: 0.09%
time stable when stored ([1]; 40° C. and 75% relative humidity): at least 1 week
Impurity % by HPLC [1, 9]: 0.10%
time stable when stored ([1]; 60° C.): at least 1 week
Impurity % by HPLC ([1]; 60° C., closed dish, 1 week): 0.17%
Impurity % by HPLC ([1]; Initial): 0.34%
pH 1 hr [2]: 3.5
pH 24 hrs [2]: 3.8
solid form by XRPD after DVS [3]: No form change

CC(C)[C@@H](C)[C@@]1(C)CC[C@]2(C)[C@H]3CC[C@@H]4[C@@]5(COC[C@]4(C)[C@@H](OC[C@](C)(N)C(C)(C)C)[C@H](n4ncnc4-c4ccncc4)C5)C3=CC[C@@]2(C)[C@@H]1C(=O)O.O=C(O)C(F)(F)F [TFA Type B]
HPLC purity [4, 10]: 99.9%
Solid form [4, 10]: Type A
HPLC purity [4, 11]: 99.9%
Solid form [4, 11]: Type A
HPLC purity [4, 12]: 99.9%
Solid form [4, 12]: Type A
HPLC purity [4, 13]: 99.9%
Solid form [4, 13]: Type A
HPLC purity [4, 14]: 99.9%
Solid form [4, 14]: Type A
HPLC purity [4, 15]: 99.9%
Solid form [4, 15]: Type A
HPLC purity [4, 16]: 99.9%
Solid form [4, 16]: Type A
HPLC purity [4, 17]: 99.9%
Solid form [4, 17]: Type A
HPLC purity ([4]; 60° C. (capped), 1 week): 99.9%
Solid form ([4]; 60° C. (capped), 1 week): Type A
HPLC purity ([4]; 60° C. (capped), 2 weeks): 99.9%
Solid form ([4]; 60° C. (capped), 2 weeks): Type A
HPLC purity ([4]; 60° C. (capped), 4 weeks): 99.9%
Solid form ([4]; 60° C. (capped), 4 weeks): Type A
HPLC purity ([4]; 60° C. (capped), 8 weeks): 99.9%
Solid form ([4]; 60° C. (capped), 8 weeks): Type A
Initial HPLC purity ([4]; Initial): 99.9%
Form by XRPD after storage ([5]; Relativity Humidity 0%): Type B
Form by XRPD after storage ([5]; Relativity Humidity 22%): Type B
Form by XRPD after storage ([5]; Relativity Humidity 97%): Type A
Form change ([6]; FeSSIF alternative media, 1 hr): No
Form change ([6]; FeSSIF alternative media, 4 hrs): No
Form change ([6]; FeSSIF alternative media, 24 hrs): No
Form change ([6]; phosphate (pH 6.0) alternative media, 4 hrs): No

CC(C)[C@@H](C)[C@@]1(C)CC[C@]2(C)[C@H]3CC[C@@H]4[C@@]5(COC[C@]4(C)[C@@H](OC[C@](C)(N)C(C)(C)C)[C@H](n4ncnc4-c4ccncc4)C5)C3=CC[C@@]2(C)[C@@H]1C(=O)O.O=C(O)CC(O)(CC(=O)O)C(=O)O [SCY-078 citrate Type E]
solid form stability at ambient conditions [7]: not stable

CC(C)[C@@H](C)[C@@]1(C)CC[C@]2(C)[C@H]3CC[C@@H]4[C@@]5(COC[C@]4(C)[C@@H](OC[C@](C)(N)C(C)(C)C)[C@H](n4ncnc4-c4ccncc4)C5)C3=CC[C@@]2(C)[C@@H]1C(=O)O.O=C(O)/C=C/C(=O)O [SCY-078 fumarate Type A]
Impurity % by HPLC [1, 8]: 0.09%
Impurity % by HPLC [1, 9]: 0.10%
Impurity % by HPLC ([1]; 60° C., closed dish, 1 week): 0.10%
Impurity % by HPLC ([1]; Initial): 0.12%
pH 1 hr [2]: 4.4
pH 24 hrs [2]: 3.8
water uptake (DVS) ([3]; 25° C., 80% RH): 2.5%
solid form by XRPD after DVS [3]: no form change

CC(C)[C@@H](C)[C@@]1(C)CC[C@]2(C)[C@H]3CC[C@@H]4[C@@]5(COC[C@]4(C)[C@@H](OC[C@](C)(N)C(C)(C)C)[C@H](n4ncnc4-c4ccncc4)C5)C3=CC[C@@]2(C)[C@@H]1C(=O)O.O=C(O)C(F)(F)F [SCY-078 Trifluoroacetate Type A]
physical and chemical stability ([4]; 25° C./60% RH, 40° C./75% RH and 60° C., 8 weeks, listed as trifluoroacetate Type A): physically and chemically stable
solid form stability at ambient conditions [7]: converted to Type B
form change of residual solid in FaSSIF alternative media ([6]; FaSSIF alternative media, ambient temperature, listed as trifluoroacetate Type A): no form change was observed
form change of residual solid in FeSSIF alternative media ([6]; FeSSIF alternative media, ambient temperature, listed as Trifluoroacetate Type A): converted to Type B
form change of residual solid in SGF ([6]; SGF, ambient temperature, listed as trifluoroacetate Type A): no form change was observed
solubility in acetate buffer (comparison) ([6]; acetate buffer pH 5.5, ambient temperature, 4 hr and 24 hrs): higher solubility
form change of residual solid in acetate buffer ([6]; acetate buffer pH 5.5, ambient temperature, listed as Trifluoroacetate Type A): no form change was observed
solubility trend in FeSSIF alternative media ([6]; after an hour): decreasing solubility
solubility in phosphate (pH 6.0) alternative media (comparison) ([6]; phosphate (pH 6.0) alternative media, ambient temperature, 4 hr and 24 hrs): lower solubility
form change of residual solid in phosphate (pH 6.0) alternative media ([6]; phosphate (pH 6.0) alternative media, ambient temperature, listed as Trifluoroacetate Type A): firstly converted to Type B at 4 hrs and back to Type A at 24 hrs
